# ChEMBL document CHEMBL2401630, “A thienopyrimidine derivative induces growth inhibition and apoptosis in human cancer cell lines via inhibiting Aurora B kinase activity” (Eur J Med Chem, 2013)
# Active and inactive are the calls of the source. The calls are words filed in the database; no cut-off is given here.
# Columns and labels:
# SK-HEP1 = test: Cytotoxicity against human SKHEP1 cells after 72 hrs by CCK-8 assay; assay type: functional, cell-based; details: SK-HEP1, 72 h
# Aurora kinase B [1] = molecular target: T1, Aurora kinase B (Homo sapiens, UniProt Q96GD4); test: Inhibition of recombinant Aurora B kinase (unknown origin) expressed in Escherichia coli
# T1 sequence (Q96GD4 whole entry): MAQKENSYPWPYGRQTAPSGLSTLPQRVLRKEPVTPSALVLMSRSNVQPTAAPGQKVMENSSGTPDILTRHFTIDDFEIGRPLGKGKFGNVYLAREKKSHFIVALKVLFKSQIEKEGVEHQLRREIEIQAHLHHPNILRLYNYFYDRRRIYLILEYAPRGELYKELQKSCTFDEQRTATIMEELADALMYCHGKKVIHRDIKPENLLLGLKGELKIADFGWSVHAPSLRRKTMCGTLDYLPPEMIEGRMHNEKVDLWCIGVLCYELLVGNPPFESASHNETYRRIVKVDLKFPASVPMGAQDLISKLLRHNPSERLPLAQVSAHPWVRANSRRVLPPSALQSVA
# Aurora kinase B [2] = molecular target: T1, Aurora kinase B; test: Inhibition of Aurora B kinase (unknown origin) at 10 uM by Z'-LYTE kinase assay
# Aurora kinase B [3] = molecular target: T1, Aurora kinase B; test: Inhibition of Aurora B kinase in human HeLa cells assessed as inhibition of Histone H3 phosphorylation after 48 hrs by Western blotting analysis; assay type: cell-based
# Homo sapiens = organism: Homo sapiens; test: Inhibition of PKA (unknown origin) at 10 uM by Z'-LYTE kinase assay
# Aurora kinase B [4] = molecular target: T1, Aurora kinase B; test: Inhibition of Aurora B kinase phosphorylation in human HeLa cells after 48 hrs by Western blotting analysis; assay type: cell-based
# [5] = molecular target: Aurora kinase A (Homo sapiens) (UniProt O14965); test: Inhibition of Aurora A kinase (unknown origin) at 10 uM by Z'-LYTE kinase assay
# Sequence of Aurora kinase A (Homo sapiens) (O14965 whole entry): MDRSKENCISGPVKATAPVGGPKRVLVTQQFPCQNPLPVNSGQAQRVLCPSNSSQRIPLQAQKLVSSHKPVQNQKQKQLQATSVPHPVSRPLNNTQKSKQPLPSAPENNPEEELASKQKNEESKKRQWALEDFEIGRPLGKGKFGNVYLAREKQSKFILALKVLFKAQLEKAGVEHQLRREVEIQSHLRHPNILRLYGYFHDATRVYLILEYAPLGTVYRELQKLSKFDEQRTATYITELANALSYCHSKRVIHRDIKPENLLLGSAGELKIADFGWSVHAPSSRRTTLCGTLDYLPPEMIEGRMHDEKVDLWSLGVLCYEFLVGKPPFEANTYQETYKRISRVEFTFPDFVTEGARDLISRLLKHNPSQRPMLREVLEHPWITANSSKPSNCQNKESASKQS
# HepG2 = test: Cytotoxicity against human HepG2 cells after 72 hrs by CCK-8 assay; assay type: functional, cell-based; details: HepG2, 72 h
# A-375 = test: Cytotoxicity against human A375 cells after 72 hrs by CCK-8 assay; assay type: functional, cell-based; details: A-375, 72 h
# MDA-MB-231 = test: Cytotoxicity against human MDA-MB-231 cells after 72 hrs by CCK-8 assay; assay type: functional, cell-based; details: MDA-MB-231, 72 h
# SW-620 [6] = test: Growth inhibition in human SW620 cells at 5 to 10 uM after 96 hrs by CCK-8 assay relative to control; assay type: functional, cell-based
# [7] = molecular target: 5'-AMP-activated protein kinase catalytic subunit alpha-2 (Homo sapiens) (UniProt P54646); test: Inhibition of AMPK (unknown origin) at 10 uM by Z'-LYTE kinase assay
# [8] = molecular target: Platelet-derived growth factor receptor beta (Homo sapiens) (UniProt P09619); test: Inhibition of PDGFR beta (unknown origin) at 10 uM by Z'-LYTE kinase assay
# SW-620 [9] = test: Cytotoxicity against human SW620 cells after 72 hrs by CCK-8 assay; assay type: functional, cell-based; details: SW-620, 72 h
# [10] = molecular target: Vascular endothelial growth factor receptor 2 (Homo sapiens) (UniProt P35968); test: Inhibition of VEGFR2 (unknown origin) at 10 uM by Z'-LYTE kinase assay
# HGC-27 = test: Cytotoxicity against human HGC27 cells after 72 hrs by CCK-8 assay; assay type: functional, cell-based; details: HGC-27, 72 h
# Aurora kinase B [11] = molecular target: T1, Aurora kinase B; test: Inhibition of Aurora B kinase phosphorylation in human HepG2 cells after 48 hrs by Western blotting analysis; assay type: cell-based
# [12] = molecular target: Glycogen synthase kinase-3 beta (Homo sapiens) (UniProt P49841); test: Inhibition of GSK3 beta (unknown origin) at 10 uM by Z'-LYTE kinase assay
# Sequence of Glycogen synthase kinase-3 beta (Homo sapiens) (P49841 whole entry, looked up): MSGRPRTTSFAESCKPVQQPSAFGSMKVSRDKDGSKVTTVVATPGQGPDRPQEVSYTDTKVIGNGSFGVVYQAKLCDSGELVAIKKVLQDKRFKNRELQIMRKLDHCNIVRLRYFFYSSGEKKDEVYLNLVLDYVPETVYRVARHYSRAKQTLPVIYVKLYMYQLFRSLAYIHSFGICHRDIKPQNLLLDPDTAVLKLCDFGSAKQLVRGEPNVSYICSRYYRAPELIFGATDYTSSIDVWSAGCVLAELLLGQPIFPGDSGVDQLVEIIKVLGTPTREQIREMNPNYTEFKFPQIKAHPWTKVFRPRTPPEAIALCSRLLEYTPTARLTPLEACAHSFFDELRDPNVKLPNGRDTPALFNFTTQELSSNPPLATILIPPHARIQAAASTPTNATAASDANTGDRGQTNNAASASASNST
# Aurora kinase B [13] = molecular target: T1, Aurora kinase B; test: Inhibition of Aurora B kinase in human HeLa cells assessed as inhibition of Histone H3 phosphorylation after 48 hrs by immuno-fluorescence analysis relative to control; assay type: cell-based
# SW-620 [14] = test: Induction of apoptosis in human SW620 cells assessed as late apoptotic cells after 48 hrs by Annexin-V staining-based flow cytometry; assay type: functional, cell-based
# SW-620 [15] = test: Growth inhibition in human SW620 cells assessed as cell death at 10 uM incubated for 96 hrs measured after 8 days by CCK-8 assay; assay type: functional, cell-based
# SW-620 [16] = test: Cytotoxicity against human SW620 cells at 10 uM incubated for 96 hrs measured after 10 days by colony formation assay relative to control; assay type: functional
# [17] = molecular target: Tyrosine-protein kinase receptor UFO (Homo sapiens) (UniProt P30530); test: Inhibition of AXL (unknown origin) at 10 uM by Z'-LYTE kinase assay
# SW-620 [18] = test: Induction of apoptosis in human SW620 cells assessed as late apoptotic cells at 20 uM after 48 hrs by Annexin-V staining-based flow cytometry (reference value: 4.52 %); assay type: functional
# Aurora kinase B [19] = molecular target: T1, Aurora kinase B; test: Competitive inhibition of recombinant Aurora B kinase (unknown origin) expressed in Escherichia coli by Z'-LYTE kinase assay in presence of ATP
# [20] = molecular target: Serine/threonine-protein kinase PLK1 (Homo sapiens) (UniProt P53350); test: Inhibition of PLK1 (unknown origin) at 10 uM by Z'-LYTE kinase assay
# [21] = Cytotoxicity against human Hep3B cells after 72 hrs by CCK-8 assay; assay type: functional, cell-based, Hep 3B2
# SK-OV-3 = test: Cytotoxicity against human SKOV3 cells after 72 hrs by CCK-8 assay; assay type: functional, cell-based; details: SK-OV-3, 72 h
# Aurora kinase B [22] = molecular target: T1, Aurora kinase B; test: Inhibition of Aurora B kinase in human HepG2 cells assessed as inhibition of Histone H3 phosphorylation after 48 hrs by Western blotting analysis; assay type: cell-based
# SW-620 [23] = test: Growth inhibition in human SW620 cells at 5 to 10 uM incubated for 96 hrs followed by compound washout measured after 48 hrs by CCK-8 assay; assay type: functional, cell-based
# A549 = test: Cytotoxicity against human A549 cells after 72 hrs by CCK-8 assay; assay type: functional, cell-based; details: A549, 72 h
# CNE = test: Cytotoxicity against human CNE cells after 72 hrs by CCK-8 assay; assay type: functional, cell-based
# [24] = molecular target: CDK2/Cyclin A2 (Homo sapiens) (UniProt P24941+P20248); test: Inhibition of CDK2/CycA (unknown origin) at 10 uM by Z'-LYTE kinase assay; assay type: protein-complex assay
# [25] = molecular target: High affinity nerve growth factor receptor (Homo sapiens) (UniProt P04629); test: Inhibition of TRKA (unknown origin) at 10 uM by Z'-LYTE kinase assay
# [26] = Cytotoxicity against human PANC cells after 72 hrs by CCK-8 assay; assay type: functional, cell-based
# [27] = molecular target: Epidermal growth factor receptor (Homo sapiens) (UniProt P00533); test: Inhibition of EGFR (unknown origin) at 10 uM by Z'-LYTE kinase assay
# Sequence of Epidermal growth factor receptor (Homo sapiens) (P00533 whole entry): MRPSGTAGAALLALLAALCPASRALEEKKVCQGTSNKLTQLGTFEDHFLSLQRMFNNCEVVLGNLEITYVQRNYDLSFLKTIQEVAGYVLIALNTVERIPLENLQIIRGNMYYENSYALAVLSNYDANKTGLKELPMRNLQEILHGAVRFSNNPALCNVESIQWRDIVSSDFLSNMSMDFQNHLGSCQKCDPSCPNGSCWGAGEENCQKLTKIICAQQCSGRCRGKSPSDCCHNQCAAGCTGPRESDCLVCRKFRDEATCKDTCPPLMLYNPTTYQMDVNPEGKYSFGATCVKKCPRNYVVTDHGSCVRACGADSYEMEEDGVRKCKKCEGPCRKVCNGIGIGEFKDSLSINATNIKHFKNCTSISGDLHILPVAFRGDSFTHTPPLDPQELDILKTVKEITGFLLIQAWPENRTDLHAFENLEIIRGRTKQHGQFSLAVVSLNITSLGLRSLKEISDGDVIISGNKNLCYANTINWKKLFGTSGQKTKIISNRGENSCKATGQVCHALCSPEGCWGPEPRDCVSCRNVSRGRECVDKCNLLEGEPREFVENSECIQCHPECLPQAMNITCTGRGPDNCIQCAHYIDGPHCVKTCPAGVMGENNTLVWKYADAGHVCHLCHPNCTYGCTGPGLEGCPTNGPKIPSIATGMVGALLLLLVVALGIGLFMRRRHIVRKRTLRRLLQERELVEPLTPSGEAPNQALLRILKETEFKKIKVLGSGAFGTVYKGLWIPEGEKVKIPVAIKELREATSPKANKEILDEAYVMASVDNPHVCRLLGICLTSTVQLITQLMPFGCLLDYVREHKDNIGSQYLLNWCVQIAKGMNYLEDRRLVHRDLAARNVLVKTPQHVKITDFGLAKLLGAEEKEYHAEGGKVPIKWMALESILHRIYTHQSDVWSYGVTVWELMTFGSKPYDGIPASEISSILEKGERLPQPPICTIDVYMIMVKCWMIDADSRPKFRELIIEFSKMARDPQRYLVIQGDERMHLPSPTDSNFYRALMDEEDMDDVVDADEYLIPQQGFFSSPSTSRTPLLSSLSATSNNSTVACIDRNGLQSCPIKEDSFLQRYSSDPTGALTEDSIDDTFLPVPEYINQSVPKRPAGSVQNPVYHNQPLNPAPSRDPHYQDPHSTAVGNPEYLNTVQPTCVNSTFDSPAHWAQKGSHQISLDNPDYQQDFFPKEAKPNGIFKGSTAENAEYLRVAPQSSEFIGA
# HCT-116 = test: Cytotoxicity against human HCT116 cells after 72 hrs by CCK-8 assay; assay type: functional, cell-based; details: HCT-116, 72 h
# [28] = molecular target: Proto-oncogene tyrosine-protein kinase receptor Ret (Homo sapiens) (UniProt P07949); test: Inhibition of RET (unknown origin) at 10 uM by Z'-LYTE kinase assay
# Sequence of Proto-oncogene tyrosine-protein kinase receptor Ret (Homo sapiens) (P07949 whole entry): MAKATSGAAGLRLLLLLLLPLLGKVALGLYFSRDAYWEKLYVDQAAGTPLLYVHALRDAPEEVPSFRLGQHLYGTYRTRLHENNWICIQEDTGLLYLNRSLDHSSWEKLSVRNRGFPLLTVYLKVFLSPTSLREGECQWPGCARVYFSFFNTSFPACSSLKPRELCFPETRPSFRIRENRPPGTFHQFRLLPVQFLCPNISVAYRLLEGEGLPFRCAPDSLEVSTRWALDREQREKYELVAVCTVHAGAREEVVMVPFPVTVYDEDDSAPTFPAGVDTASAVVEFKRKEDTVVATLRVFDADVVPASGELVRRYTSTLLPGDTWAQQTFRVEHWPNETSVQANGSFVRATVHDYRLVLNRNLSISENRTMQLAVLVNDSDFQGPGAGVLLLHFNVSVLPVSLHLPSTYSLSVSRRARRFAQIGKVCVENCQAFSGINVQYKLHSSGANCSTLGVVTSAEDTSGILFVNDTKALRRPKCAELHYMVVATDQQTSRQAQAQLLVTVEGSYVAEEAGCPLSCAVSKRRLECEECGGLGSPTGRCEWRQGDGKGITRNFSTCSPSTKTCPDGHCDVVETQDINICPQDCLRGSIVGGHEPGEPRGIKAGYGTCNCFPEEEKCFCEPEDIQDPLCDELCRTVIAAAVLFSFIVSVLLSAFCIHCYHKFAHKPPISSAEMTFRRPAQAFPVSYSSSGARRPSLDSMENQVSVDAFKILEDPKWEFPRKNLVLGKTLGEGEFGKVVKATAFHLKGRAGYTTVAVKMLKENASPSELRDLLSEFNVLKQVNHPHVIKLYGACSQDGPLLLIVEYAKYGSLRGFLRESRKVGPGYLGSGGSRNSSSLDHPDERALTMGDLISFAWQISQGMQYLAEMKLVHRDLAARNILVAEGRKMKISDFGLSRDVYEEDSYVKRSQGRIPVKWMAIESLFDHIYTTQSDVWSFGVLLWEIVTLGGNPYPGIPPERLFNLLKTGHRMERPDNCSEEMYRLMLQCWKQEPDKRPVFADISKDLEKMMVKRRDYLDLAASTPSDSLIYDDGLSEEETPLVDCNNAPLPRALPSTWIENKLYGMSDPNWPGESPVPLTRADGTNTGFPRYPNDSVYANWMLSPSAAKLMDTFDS
# SW-620 [29] = test: Induction of apoptosis in human SW620 cells assessed as late apoptotic cells at 5 uM after 48 hrs by Annexin-V staining-based flow cytometry (reference value: 4.52 %); assay type: functional
# Aurora kinase B [30] = molecular target: T1, Aurora kinase B; test: Inhibition of Aurora B kinase phosphorylation in human SW620 cells after 48 hrs by Western blotting analysis; assay type: cell-based; details: SW-620
# [31] = molecular target: RAC-alpha serine/threonine-protein kinase (Homo sapiens) (UniProt P31749); test: Inhibition of AKT1 (unknown origin) at 10 uM by Z'-LYTE kinase assay
# Sequence of RAC-alpha serine/threonine-protein kinase (Homo sapiens) (P31749 whole entry): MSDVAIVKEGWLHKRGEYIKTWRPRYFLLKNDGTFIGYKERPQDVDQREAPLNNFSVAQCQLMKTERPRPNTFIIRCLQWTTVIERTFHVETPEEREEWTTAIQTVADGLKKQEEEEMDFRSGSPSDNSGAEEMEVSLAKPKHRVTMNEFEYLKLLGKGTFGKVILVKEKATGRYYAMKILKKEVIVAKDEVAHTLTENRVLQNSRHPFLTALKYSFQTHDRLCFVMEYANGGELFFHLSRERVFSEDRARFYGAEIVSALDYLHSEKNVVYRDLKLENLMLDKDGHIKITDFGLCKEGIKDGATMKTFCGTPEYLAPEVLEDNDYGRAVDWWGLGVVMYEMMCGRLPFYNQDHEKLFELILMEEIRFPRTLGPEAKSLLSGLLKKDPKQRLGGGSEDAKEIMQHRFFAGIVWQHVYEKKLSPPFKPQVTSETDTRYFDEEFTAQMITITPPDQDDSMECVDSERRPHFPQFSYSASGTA
# PC-3 = test: Cytotoxicity against human PC3 cells after 72 hrs by CCK-8 assay; assay type: functional, cell-based; details: PC-3, 72 h
# MCF7 = test: Cytotoxicity against human MCF7 cells after 72 hrs by CCK-8 assay; assay type: functional, cell-based; details: MCF7, 72 h
# SW-620 [32] = test: Cytotoxicity against human SW620 cells at 20 uM incubated for 96 hrs measured after 10 days by colony formation assay relative to control; assay type: functional
# SW-620 [33] = test: Induction of apoptosis in human SW620 cells assessed as late apoptotic cells at 10 uM after 48 hrs by Annexin-V staining-based flow cytometry (reference value: 4.52 %); assay type: functional
# Aurora kinase B [34] = molecular target: T1, Aurora kinase B; test: Inhibition of Aurora B kinase in human SW620 cells assessed as inhibition of Histone H3 phosphorylation after 48 hrs by Western blotting analysis; assay type: cell-based; details: SW-620
# HeLa = test: Cytotoxicity against human HeLa cells after 72 hrs by CCK-8 assay; assay type: functional, cell-based
# [35] = molecular target: RAF proto-oncogene serine/threonine-protein kinase (Homo sapiens) (UniProt P04049); test: Inhibition of c-Raf (unknown origin) at 10 uM by Z'-LYTE kinase assay
# Sequence of RAF proto-oncogene serine/threonine-protein kinase (Homo sapiens) (P04049 whole entry): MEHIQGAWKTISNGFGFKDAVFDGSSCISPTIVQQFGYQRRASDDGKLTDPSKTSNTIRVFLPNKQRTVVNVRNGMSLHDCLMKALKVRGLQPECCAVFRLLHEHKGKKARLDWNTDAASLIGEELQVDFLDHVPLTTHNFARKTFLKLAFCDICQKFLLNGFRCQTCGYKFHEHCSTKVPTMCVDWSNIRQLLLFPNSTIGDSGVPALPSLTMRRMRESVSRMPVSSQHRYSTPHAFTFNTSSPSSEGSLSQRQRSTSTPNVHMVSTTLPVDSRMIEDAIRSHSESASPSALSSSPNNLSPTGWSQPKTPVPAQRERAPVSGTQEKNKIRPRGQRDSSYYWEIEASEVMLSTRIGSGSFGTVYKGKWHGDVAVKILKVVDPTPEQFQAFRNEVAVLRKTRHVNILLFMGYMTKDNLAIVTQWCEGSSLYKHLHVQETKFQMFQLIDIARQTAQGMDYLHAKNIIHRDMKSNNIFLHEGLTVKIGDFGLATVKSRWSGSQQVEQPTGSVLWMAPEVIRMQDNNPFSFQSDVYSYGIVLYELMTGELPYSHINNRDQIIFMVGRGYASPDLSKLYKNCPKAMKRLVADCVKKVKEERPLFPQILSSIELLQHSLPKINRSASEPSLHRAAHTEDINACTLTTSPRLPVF
smiles,measurement,setting,value
c1ccc(-c2csc3ncnc(N4CCc5ccccc5C4)c23)cc1,IC50,SK-HEP1,> 100 µM
same,IC50,Aurora kinase B [1],0.141 µM
same,inhibition,Aurora kinase B [2],74.4%
same,inhibition,Aurora kinase B [3],Active
same,inhibition,Homo sapiens,1.77%
same,inhibition,Aurora kinase B [4],Dose-dependent effect
same,inhibition,[5],65.3%
same,IC50,HepG2,23.4 µM
same,IC50,A-375,15.2 µM
same,IC50,MDA-MB-231,> 100 µM
same,growth inhibition (GI),SW-620 [6],Active
same,inhibition,[7],3.37%
same,inhibition,[8],9.63%
same,IC50,SW-620 [9],6.25 µM
same,inhibition,[10],3.02%
same,IC50,HGC-27,17.4 µM
same,inhibition,Aurora kinase B [11],Dose-dependent effect
same,inhibition,[12],13%
same,inhibition,Aurora kinase B [13],Active
same,Activity,SW-620 [14],Dose-dependent effect
same,growth inhibition (GI),SW-620 [15],Active
same,Activity,SW-620 [16],33.6%
same,inhibition,[17],2.58%
same,Activity,SW-620 [18],35.39%
same,inhibition,Aurora kinase B [19],Active
same,inhibition,[20],6.5%
same,IC50,[21],> 100 µM
same,IC50,SK-OV-3,20.6 µM
same,inhibition,Aurora kinase B [22],Active
same,growth inhibition (GI),SW-620 [23],inactive
same,IC50,A549,> 100 µM
same,IC50,CNE,> 100 µM
same,inhibition,[24],27.7%
same,inhibition,[25],4.18%
same,IC50,[26],42.3 µM
same,inhibition,[27],1.69%
same,IC50,HCT-116,> 100 µM
same,inhibition,[28],1.86%
same,Activity,SW-620 [29],9.34%
same,inhibition,Aurora kinase B [30],Dose-dependent effect
same,inhibition,[31],5.32%
same,IC50,PC-3,13.2 µM
same,IC50,MCF7,27 µM
same,Activity,SW-620 [32],13.2%
same,Activity,SW-620 [33],24.09%
same,inhibition,Aurora kinase B [34],Active
same,IC50,HeLa,20.8 µM
same,inhibition,[35],1.42%
